SI and IC50 data for 45 compounds are collected here from ChEMBL document CHEMBL1148463, “Gamma-amino-substituted analogues of 1-[(S)-2,4-diaminobutanoyl]piperidine as highly potent and selective dipeptidyl peptidase II inhibitors” (J Med Chem, 2004).

Structures are written as SMILES. Where only a bound is given, the exact number is not on record here.

Experiment [1] has as its target Dipeptidyl peptidase II and dipeptidyl peptidase IV (DPP2 and DPP4) (Homo sapiens) (UniProt P27487+Q9UHL4). The experiment is described as follows: Ratio of IC50 for DPP IV to that of IC50 for DPP II. The experiment is classed as protein assay.
Experiment [2] concerns the target Dipeptidyl peptidase 2 (Homo sapiens, UniProt Q9UHL4). The experiment in a line: Inhibition of human Dipeptidylpeptidase II (DPP II).
Experiment [3] deals with Dipeptidyl peptidase 4 (Homo sapiens, UniProt P27487). The experiment in a line: Inhibition of human Dipeptidylpeptidase IV (DPP IV).
Dipeptidyl peptidase 4, sequence (P27487 whole entry): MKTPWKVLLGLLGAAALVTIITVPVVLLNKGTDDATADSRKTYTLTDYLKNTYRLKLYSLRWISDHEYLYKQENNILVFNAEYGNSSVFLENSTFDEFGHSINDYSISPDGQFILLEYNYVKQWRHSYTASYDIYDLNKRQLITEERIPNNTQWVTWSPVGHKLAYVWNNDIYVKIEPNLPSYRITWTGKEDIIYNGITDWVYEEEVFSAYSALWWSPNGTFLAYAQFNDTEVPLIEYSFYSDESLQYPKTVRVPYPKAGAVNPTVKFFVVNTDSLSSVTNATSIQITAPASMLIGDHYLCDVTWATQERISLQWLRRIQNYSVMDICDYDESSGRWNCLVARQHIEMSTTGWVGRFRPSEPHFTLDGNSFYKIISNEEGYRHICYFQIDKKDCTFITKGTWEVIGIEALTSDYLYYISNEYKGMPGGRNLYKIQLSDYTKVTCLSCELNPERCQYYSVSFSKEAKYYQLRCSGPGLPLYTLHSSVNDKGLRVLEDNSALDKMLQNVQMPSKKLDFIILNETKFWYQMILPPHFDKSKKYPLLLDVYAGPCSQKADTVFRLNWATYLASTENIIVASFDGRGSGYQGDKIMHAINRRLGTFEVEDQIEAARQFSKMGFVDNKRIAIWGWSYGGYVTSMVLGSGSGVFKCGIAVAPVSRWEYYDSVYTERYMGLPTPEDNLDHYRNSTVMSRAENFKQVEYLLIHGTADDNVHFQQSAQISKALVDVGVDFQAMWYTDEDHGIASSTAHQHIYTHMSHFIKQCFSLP
Experiment [4] is described as follows: Inhibition of human Dipeptidylpeptidase II (DPP II).

As usually defined, the IC50 is the concentration at which inhibition is half-maximal. Low readings indicate greater potency in that assay, high ones weaker potency in that assay. As to `N[C@@H](CCNCCCc1ccccc1)C(=O)N1CCCCC1`, in experiment [1], the SI is over 260000. The IC50 was 0.00191 µM in experiment [2] and over 500 µM in experiment [3].
In the case of `N[C@@H](CCNCc1ccc(Cl)cc1)C(=O)N1CCC(O)CC1`, the SI in experiment [1] is over 9000. For the same compound, the half-inhibitory concentration (IC50) is 0.113 µM in experiment [2] and over 1000 µM in experiment [3].
For `N[C@@H](CCN(Cc1ccccc1)Cc1ccccc1)C(=O)N1CCCCC1`, the SI in experiment [1] turned out to be 440000. The IC50 in experiment [2] was determined as 0.0006 µM; in experiment [3], 266 µM.
As to `N[C@@H](CCNC1CCCCC1)C(=O)N1CCCCC1`, the SI in experiment [1] was over 50000. Moreover, the concentration for half-maximal inhibition (IC50) in experiment [2] was 0.0186 µM; in experiment [3], over 1000 µM.
With `CC1CCN(C(=O)[C@@H](N)CCNCc2ccc(Cl)cc2)CC1`, the SI in experiment [1] is over 910000. The results for the half-inhibitory concentration (IC50) in experiment [2] and in experiment [3] were 0.00055 µM and over 500 µM, respectively.
On the same counts, the results for `N[C@@H](CCNCc1ccc(Cl)cc1)C(=O)N1CCCC(O)C1` (stereo partly drawn) are over 20000, 0.0547 µM and over 1000 µM.
Take `N[C@@H](CCNCc1ccc2ccccc2c1)C(=O)N1CCCCC1`: in experiment [1], the SI is 160000. Further, the IC50 in experiment [2] came to 0.0011 µM; in experiment [3], 179 µM.
As for `N[C@@H](CCNCc1cccc(Cl)c1)C(=O)N1CCCCC1`, the SI in experiment [1] was 140000. Besides, the half-inhibitory concentration (IC50) came out at 0.00134 µM in experiment [2] and 186 µM in experiment [3].
Take `N#C[C@@H]1CCCCN1C(=O)[C@@H](N)CCN`: the SI in experiment [1] turned out to be 4000. Moreover, the IC50 in experiment [2] came to 0.038 µM; in experiment [3], 151 µM.
`N#Cc1cccc(CNCC[C@H](N)C(=O)N2CCCCC2)c1`: the SI in experiment [1] came to 50000. Also, the half-inhibitory concentration (IC50) in experiment [2] was found to be 0.0027 µM; in experiment [3], 132 µM.
Taken in the same sequence, the figures for `N[C@@H](CCNCc1cccs1)C(=O)N1CCCCC1` were 350000, 0.0008 µM and 278 µM.
`N[C@@H](CCNc1ncccc1[N+](=O)[O-])C(=O)N1CCCCC1`: the IC50 in experiment [2] was 0.0235 µM; in experiment [3] it was 56 µM.
Take `CC(=O)NCC[C@H](N)C(=O)N1CCCCC1`: the results for the IC50 in experiment [2] and in experiment [3] were 0.0015 µM and 518 µM, respectively.
On to `CC1CCCCN1C(=O)[C@@H](N)CCNCc1ccc(Cl)cc1` (stereo partly drawn), for which the SI in experiment [1] was over 220000. The half-inhibitory concentration (IC50) is 0.0023 µM in experiment [2] and over 500 µM in experiment [3].
In the case of `NCC[C@H](NC1CCNCC1)C(=O)N1CCCCC1`, the SI in experiment [1] was over 59. The concentration for half-maximal inhibition (IC50) in experiment [2] was 0.017 µM; in experiment [3], over 1000 µM.
As for `COc1ccc(CNCC[C@H](N)C(=O)N2CCCCC2)c(OC)c1`, in experiment [1], the SI was over 180000. Also, the results for the half-maximal inhibitory concentration (IC50) in experiment [2] and in experiment [3] were 0.0027 µM and over 500 µM, respectively.
`CN(CC[C@H](N)C(=O)N1CCCCC1)Cc1ccc(Cl)cc1`: in experiment [1], the SI was 890000. For the same compound, the 50% inhibitory concentration (IC50) in experiment [2] came out at 0.00022 µM; in experiment [3] it was 196 µM.
Take `COc1cccc(CNCC[C@H](N)C(=O)N2CCCCC2)c1`: the SI in experiment [1] was 140000. Moreover, the figures for the half-inhibitory concentration (IC50) in experiment [2] and in experiment [3] were 0.00177 µM and 250 µM, respectively.
Take `NCC[C@H](NCc1ccccc1)C(=O)N1CCCCC1`: the SI in experiment [1] was over 80. For the same compound, the results for the IC50 in experiment [2] and in experiment [3] were 0.0125 µM and over 1000 µM, respectively.
On to `N=C(N)NCC[C@H](N)C(=O)N1CCCCC1`, for which the IC50 in experiment [2] was 0.0018 µM; in experiment [3], 545 µM.
Consider `N[C@@H](CCN(Cc1ccc(Cl)cc1)Cc1ccc(Cl)cc1)C(=O)N1CCCCC1`, for which the SI in experiment [1] was over 30000. Besides, the IC50 in experiment [2] was 0.0042 µM; in experiment [3] it was over 125 µM.
As to `N#CC1CCCCN1C(=O)[C@@H](N)CCNCc1ccc(Cl)cc1` (stereo partly drawn), in experiment [1], the SI worked out at 2000. In addition, the IC50 was 0.0065 µM in experiment [2] and 13 µM in experiment [3].
Taken in the same sequence, the figures for `N[C@@H](CCNCc1ccccc1Cl)C(=O)N1CCCCC1` were 1.5e+06, 0.00023 µM and 345 µM.
Take `NCC[C@H](N)C(=O)N1CCCCC1`: the SI in experiment [1] is over 7600. Also, the 50% inhibitory concentration (IC50) in experiment [3] was over 1000 µM; in experiment [4], 0.13 µM.
Consider `N[C@@H](CCNCc1ccccc1OCc1ccccc1)C(=O)N1CCCCC1`, for which the SI in experiment [1] was over 1.3e+06. Moreover, the IC50 was 0.00039 µM in experiment [2] and over 500 µM in experiment [3].
For `N[C@@H](CCNCc1ccccc1)C(=O)N1CCCCC1`, the SI in experiment [1] turned out to be 120000. For the same compound, the results for the IC50 in experiment [2] and in experiment [3] were 0.00203 µM and 247 µM, respectively.
Take `N[C@@H](CCNCc1ccc(Cl)cc1)C(=O)N1CCCCC1`: the SI in experiment [1] is 340000. The 50% inhibitory concentration (IC50) in experiment [2] came out at 0.00048 µM; in experiment [3] it was 165 µM.
For the compound `N[C@@H](CCNCc1ccc(OCc2ccccc2)cc1)C(=O)N1CCCCC1`, the SI in experiment [1] amounted to 470000. Besides, the IC50 in experiment [2] came out at 0.00041 µM; in experiment [3], 192 µM.
Regarding `N[C@@H](CCNC1CCNCC1)C(=O)N1CCCCC1`, the SI in experiment [1] amounted to 750. Further, the concentration for half-maximal inhibition (IC50) came to 0.085 µM in experiment [2] and 64 µM in experiment [3].
Take `N[C@@H](CCNCc1ccc(Cl)cc1)C(=O)N1CCCC(F)C1` (stereo partly drawn): the half-inhibitory concentration (IC50) amounted to 0.00062 µM in experiment [2] and 500 µM in experiment [3].
Consider `N[C@@H](CCNCCc1ccccc1)C(=O)N1CCCCC1`, for which the SI in experiment [1] is 210000. Also, the figures for the IC50 in experiment [2] and in experiment [3] were 0.0009 µM and 188 µM, respectively.
In the case of `CC1CCCN(C(=O)[C@@H](N)CCNCc2ccc(Cl)cc2)C1` (stereo partly drawn), the SI in experiment [1] is over 440000. Moreover, the results for the IC50 in experiment [2] and in experiment [3] were 0.00113 µM and over 500 µM, respectively.
As for `COc1ccccc1CNCC[C@H](N)C(=O)N1CCCCC1`, the SI in experiment [1] was over 270000. Further, the values for the half-inhibitory concentration (IC50) in experiment [2] and in experiment [3] were 0.185 µM and over 500 µM, respectively.
On the same counts, the results for `CN[C@@H](CCNCc1ccc(Cl)cc1)C(=O)N1CCCCC1` are over 2700, 0.187 µM and over 500 µM.
As for `N[C@@H](CCNc1ccccc1)C(=O)N1CCCCC1`, the concentration for half-maximal inhibition (IC50) turned out to be 0.0015 µM in experiment [2] and 250 µM in experiment [3].
In the case of `N[C@@H](CCNCc1ccc(Cl)cc1)C(=O)N1CCC(F)CC1`, in experiment [1], the SI was determined as 180000. Besides, the values for the IC50 in experiment [2] and in experiment [3] were 0.00039 µM and 70 µM, respectively.
For `N[C@@H](CCNC(=O)c1ccccc1)C(=O)N1CCCCC1`, the IC50 turned out to be 0.0074 µM in experiment [2] and 418 µM in experiment [3].
Regarding `N[C@@H](CCNCc1ccncc1)C(=O)N1CCCCC1`, in experiment [1], the SI was 170000. The IC50 in experiment [2] turned out to be 0.00075 µM; in experiment [3], 125 µM.
With `N#CC1CCCCN1C(=O)[C@@H](N)CCNCc1ccccc1` (stereo partly drawn), in experiment [1], the SI was 17000. The IC50 in experiment [2] stood at 0.004 µM; in experiment [3], 68 µM.
For the compound `N#Cc1ccc(NCC[C@H](N)C(=O)N2CCCCC2)nc1`, the half-inhibitory concentration (IC50) in experiment [2] came out at 0.0046 µM; in experiment [3] it was 205 µM.
Consider `N[C@@H](CCNCC1CCCCC1)C(=O)N1CCCCC1`, for which, in experiment [1], the SI is 450000. Further, the IC50 came out at 0.0011 µM in experiment [2] and 496 µM in experiment [3].
Taken in the same sequence, the figures for `NCC[C@H](N=C(N)N)C(=O)N1CCCCC1` were over 140, 0.0074 µM and over 1000 µM.
In the case of `N[C@@H](CCNCc1ccc(Cl)cc1)C(=O)N1CC=CCC1`, the SI in experiment [1] came out at 130000. For the same compound, the IC50 in experiment [2] stood at 0.0011 µM; in experiment [3], 148 µM.
Regarding `COc1ccc(CNCC[C@H](N)C(=O)N2CCCCC2)cc1`, in experiment [1], the SI was found to be 630000. Moreover, the IC50 in experiment [2] worked out at 0.00066 µM; in experiment [3], 417 µM.
Take `N[C@@H](CCNCc1cccc2ccccc12)C(=O)N1CCCCC1`: in experiment [1], the SI worked out at 230000. Moreover, the values for the half-maximal inhibitory concentration (IC50) in experiment [2] and in experiment [3] were 0.00131 µM and 301 µM, respectively.
